Key:
YpHddC [1] = target: T1, YpHddC (Yersinia pseudotuberculosis, UniProt Q8GJ90)
T1 construct: gene hddC

YpHddC [2] = target: T1, YpHddC; remark: listed apart in the source

T1 sequence (Q8GJ90 1-225 limits assumed): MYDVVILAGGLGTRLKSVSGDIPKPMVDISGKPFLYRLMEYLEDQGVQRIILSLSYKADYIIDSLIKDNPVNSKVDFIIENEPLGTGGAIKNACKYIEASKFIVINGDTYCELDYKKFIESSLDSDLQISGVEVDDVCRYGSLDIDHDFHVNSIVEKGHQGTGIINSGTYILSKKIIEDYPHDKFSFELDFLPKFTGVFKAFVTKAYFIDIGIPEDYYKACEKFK

Nc1nc2c(ncn2[C@@H]2O[C@H](COP(=O)(O)OP(N)(=O)O)[C@@H](O)[C@H]2O)c(=O)[nH]1 [GMPPN]
X-ray crystal structure, 1.55 Å (YpHddC [1]): The extra densities were well matched with one magnesium, one GMPPN (Figure A1)

Nc1nc2c(ncn2[C@@H]2O[C@H](COP(=O)(O)OP(=O)(O)OP(=O)(O)O)[C@@H](O)[C@H]2O)c(=O)[nH]1 [GTP]
malachite green assay with pyrophosphatase (YpHddC [2]): The main molecular property of YpHddC is its GTP preference

O=P(O)(O)O[C@H]1O[C@H](CO)[C@@H](O)[C@H](O)[C@@H]1O [αM1P]
malachite green assay with pyrophosphatase (YpHddC [2]): we used α-D-Mannose-1-phosphate (αM1P) purchased from Sigma for a substrate
